Measurements as given in patent US12479895B2, “C-terminal CDNF and MANF fragments, pharmaceutical compositions comprising same and uses thereof” (MyNeuroCure Oy, priority 2018, dated 2025).

How the values were obtained:
[1] = system: ER stressed SCG neurons; experiment: Survival of tunicamycin-treated (ER stressed) SCG sympathetic neurons after microinjection; type: cell-based, mice; details: for survived neurons as % compared to neurons grown in the presence of NGF: microinjected into cytoplasm, CDNF (400); for Fold change of survived neurons compared to neurons injected with PBS: data of Table 1 divided by values of PBS
Protocol: Non-neuronal cells were removed by extensive preplating. Almost pure neurons were cultured in polyornithine/laminin (Sigma)-coated 35-mm plastic dishes in the small-size standard microislands in the Neurobasal medium and B27 supplement (Invitrogen/Gibco) in the presence of 30 ng/ml mouse nerve growth factor (NGF) (Promega) for 5-6 days. NGF was deprived by extensive washing and addition of the function-blocking anti-NGF antibodies (Roche). The neurons were pressure-microinjected with special neuronal microinjection equipment (Hellman et al., 2011; Hamner et al., 2001; Lindholm et al., 2002; Sun et al., 2001; Yu et al., 2003)(Sun et al., 2001; Sun et al., 2003). For the survival assay, all neurons on the microislands were counted in the beginning (initial number) and the end (three days) of the experiment and expressed as % of initial.
Microinjection of the sympathetic neurons was performed as described earlier (Yu, L. Y., Jokitalo, E., Sun, Y. F., Mehlen, P., Lindholm, D., Saarma, M., and Arumae, U. (2003) J Cell Biol. 163, 987-997). Plasmids for CDNF have been described earlier. Briefly, newborn mouse SCG neurons were grown with NGF (Promega) for 5-6 days then the nuclei were microinjected with the expression plasmids for full-length (FL)-CDNF and C-CDNF together with a reporter plasmid for enhanced green fluorescent protein (EGFP), using vector concentration of 10 ng/ul in each experiment. […] For protein microinjection, recombinant full length (FL)-CDNF, C-CDNF proteins in PBS at 200 ng/ul were microinjected directly into the cytoplasm together with fluorescent reporter Dextran Texas Red (MW 70000 Da) (Invitrogen, Molecular Probes) that facilitates identification of the successfully injected neurons. Next day tunicamycin (2 μM) was added, and after 3 days the living fluorescent neurons were counted. Living fluorescent (EGFP-expressing or Dextran Texas Red-containing) neurons were “blindly” counted three days later and expressed as percent of initial living fluorescent neurons counted 2-3 hours after microinjection. The experiments with plasmids were repeated on independent cultures 5 times for plasmid experiment, whereas four independent protein injection experiments were performed. On average, 50-80 neurons were successfully injected per experimental group. The results were expressed as the mean±the SEM. Data of each experimental group was compared with control plasmid PCR3.1 (vector) or PBS (in the protein injection experiments) by one-way ANOVA and post hoc Dunnett's t test. The null hypothesis was rejected at p<0.05.

[2] = system: dopamine neurons; experiment: Survival of TH-positive dopamine neurons in dissociated midbrain floor cultures; type: cell-based, mouse; details: for Fold change of survived neurons compared to neurons grown without growth factors: data of Table 3 divided by values of no factor
Protocol: To study the dopamine neurons (Yu et al., 2008; Yu and Arumae, 2008), the midbrain floors were dissected from the ventral mesencephali of 13.5-d-old NMRI strain mouse embryos. Tissues were incubated with 0.5% trypsin (ICN Biomedical), then mechanically dissociated using a large fire-polished Pasteur pipette. The neurons were grown on the poly-L-ornithine-coated (Sigma) 96-well culture plates in DMEM/F12 medium (Invitrogen) containing N2 supplement (Invitrogen) in the presence or absence of GDNF (100 ng/ml) or with CDNF, MANF, C-CDNF and C-MANF polypeptides at different concentrations for five days. Same amount of the neurons were plated to each well at the beginning of the experiments. The cultures without added neurotrophic factors served as the negative control. As the midbrain cultures contain several neuronal types, the cultures were fixed and immunostained with the antibodies to tyrosine hydroxylase (TH) (Millipore), a specific marker for the dopaminergic neurons. Images of each well were scanned by CellInsight™ and immunopositive neurons were counted by CellProfiler and CellProfiler analyst software. Data are expressed as a percentage of GDNF-maintained TH-positive neurons. All experiments were repeated at least three times on the independent cultures. The results were expressed as the mean the SEM and were tested for the significance by either one-way ANOVA and Tukey's post hoc test or by two-tailed Student's t-test. The null hypothesis was rejected at P≤0.05.

Sequence: KYEKTLDLASVDLRKMRVAELKQILHSWGEECRACAEKTDYVNLIQELAPKYA (listed as Homo sapiens) [pep3]
- survived neurons as % compared to neurons grown in the presence of NGF ([1]; Table 1A (FIG. 14), AVG of exp1-2, tunicamycin 2 μM): 85.46 % NGF
- survived neurons as % compared to neurons grown in the presence of NGF ([1]; Table 1A (FIG. 14), exp1, tunicamycin 2 μM, counted after 3 days): 83.08 % NGF
- survived neurons as % compared to neurons grown in the presence of NGF ([1]; Table 1A (FIG. 14), exp2, tunicamycin 2 μM, counted after 3 days): 87.84 % NGF
- Fold change of survived neurons compared to neurons injected with PBS ([1]; Table 2, AVG): 2.32 Fold to PBS
- Fold change of survived neurons compared to neurons injected with PBS ([1]; Table 2, exp1): 2.42 Fold to PBS
- Fold change of survived neurons compared to neurons injected with PBS ([1]; Table 2, exp2): 2.21 Fold to PBS
- survived neurons as % compared to neurons grown in the presence of GDNF ([2]; Table 3A (FIG. 15), AVG, 1 ng/ml, 5 days): 66.40 % GDNF
- survived neurons as % compared to neurons grown in the presence of GDNF ([2]; Table 3A (FIG. 15), AVG, 10 ng/ml, 5 days): 73.60 % GDNF
- survived neurons as % compared to neurons grown in the presence of GDNF ([2]; Table 3A (FIG. 15), AVG, 100 ng/ml, 5 days): 74.14 % GDNF
- survived neurons as % compared to neurons grown in the presence of GDNF ([2]; Table 3A (FIG. 15), AVG, 1000 ng/ml, 5 days): 81.99 % GDNF
- survived neurons as % compared to neurons grown in the presence of GDNF ([2]; Table 3A (FIG. 15), exp1, 1 ng/ml, 5 days): 73.87 % GDNF
- survived neurons as % compared to neurons grown in the presence of GDNF ([2]; Table 3A (FIG. 15), exp1, 10 ng/ml, 5 days): 74.30 % GDNF
- survived neurons as % compared to neurons grown in the presence of GDNF ([2]; Table 3A (FIG. 15), exp1, 100 ng/ml, 5 days): 85.15 % GDNF
- survived neurons as % compared to neurons grown in the presence of GDNF ([2]; Table 3A (FIG. 15), exp1, 1000 ng/ml, 5 days): 84.53 % GDNF
- survived neurons as % compared to neurons grown in the presence of GDNF ([2]; Table 3A (FIG. 15), exp2, 1 ng/ml, 5 days): 62.76 % GDNF
- survived neurons as % compared to neurons grown in the presence of GDNF ([2]; Table 3A (FIG. 15), exp2, 10 ng/ml, 5 days): 64.35 % GDNF
- survived neurons as % compared to neurons grown in the presence of GDNF ([2]; Table 3A (FIG. 15), exp2, 100 ng/ml, 5 days): 58.79 % GDNF
- survived neurons as % compared to neurons grown in the presence of GDNF ([2]; Table 3A (FIG. 15), exp2, 1000 ng/ml, 5 days): 80.59 % GDNF
- survived neurons as % compared to neurons grown in the presence of GDNF ([2]; Table 3A (FIG. 15), exp3, 1 ng/ml, 5 days): 62.58 % GDNF
- survived neurons as % compared to neurons grown in the presence of GDNF ([2]; Table 3A (FIG. 15), exp3, 10 ng/ml, 5 days): 82.16 % GDNF
- survived neurons as % compared to neurons grown in the presence of GDNF ([2]; Table 3A (FIG. 15), exp3, 100 ng/ml, 5 days): 78.46 % GDNF
- survived neurons as % compared to neurons grown in the presence of GDNF ([2]; Table 3A (FIG. 15), exp3, 1000 ng/ml, 5 days): 80.86 % GDNF
- Fold change of survived neurons compared to neurons grown without growth factors ([2]; Table 4, AVG, 1 ng/ml): 1.08 fold
- Fold change of survived neurons compared to neurons grown without growth factors ([2]; Table 4, AVG, 10 ng/ml): 1.20 fold
- Fold change of survived neurons compared to neurons grown without growth factors ([2]; Table 4, AVG, 100 ng/ml): 1.21 fold
- Fold change of survived neurons compared to neurons grown without growth factors ([2]; Table 4, AVG, 1000 ng/ml): 1.34 fold
- Fold change of survived neurons compared to neurons grown without growth factors ([2]; Table 4, exp1, 1 ng/ml): 1.29 fold
- Fold change of survived neurons compared to neurons grown without growth factors ([2]; Table 4, exp1, 10 ng/ml): 1.30 fold
- Fold change of survived neurons compared to neurons grown without growth factors ([2]; Table 4, exp1, 100 ng/ml): 1.49 fold
- Fold change of survived neurons compared to neurons grown without growth factors ([2]; Table 4, exp1, 1000 ng/ml): 1.48 fold
- Fold change of survived neurons compared to neurons grown without growth factors ([2]; Table 4, exp2, 1 ng/ml): 1.00 fold
- Fold change of survived neurons compared to neurons grown without growth factors ([2]; Table 4, exp2, 10 ng/ml): 1.02 fold
- Fold change of survived neurons compared to neurons grown without growth factors ([2]; Table 4, exp2, 100 ng/ml): 0.93 fold
- Fold change of survived neurons compared to neurons grown without growth factors ([2]; Table 4, exp2, 1000 ng/ml): 1.28 fold
- Fold change of survived neurons compared to neurons grown without growth factors ([2]; Table 4, exp3, 1 ng/ml): 0.97 fold
- Fold change of survived neurons compared to neurons grown without growth factors ([2]; Table 4, exp3, 10 ng/ml): 1.27 fold
- Fold change of survived neurons compared to neurons grown without growth factors ([2]; Table 4, exp3, 100 ng/ml): 1.21 fold
- Fold change of survived neurons compared to neurons grown without growth factors ([2]; Table 4, exp3, 1000 ng/ml): 1.25 fold

Sequence: RVAELKQILHSWGEECRACAEKTDYVNLIQELAPKYA (listed as Homo sapiens) [pep8]
- survived neurons as % compared to neurons grown in the presence of NGF ([1]; Table 1B (FIG. 16), exp1, tunicamycin 2 μM, counted after 3 days): 77.94 % NGF
- survived neurons as % compared to neurons grown in the presence of NGF ([1]; Table 1B (FIG. 16), exp2, tunicamycin 2 μM, counted after 3 days): 65.57 % NGF
- survived neurons as % compared to neurons grown in the presence of NGF ([1]; Table 1B (FIG. 16), exp3, tunicamycin 2 μM, counted after 3 days): 73.91 % NGF
- rescue of ER stressed SCG neurons (result in words) ([1]; protein or peptide microinjected into the cytoplasm, tunicamycin 2 μM, living fluorescent neurons counted after 3 days): rescue
- survived neurons as % compared to neurons grown in the presence of GDNF ([2]; Table 3B (FIG. 17), AVG, 1 ng/ml, 5 days): 64.02 % GDNF
- survived neurons as % compared to neurons grown in the presence of GDNF ([2]; Table 3B (FIG. 17), AVG, 10 ng/ml, 5 days): 75.69 % GDNF
- survived neurons as % compared to neurons grown in the presence of GDNF ([2]; Table 3B (FIG. 17), AVG, 100 ng/ml, 5 days): 85.95 % GDNF
- survived neurons as % compared to neurons grown in the presence of GDNF ([2]; Table 3B (FIG. 17), AVG, 1000 ng/ml, 5 days): 81.43 % GDNF
- protection of dopaminergic neurons in culture (result in words) ([2]; added to the culture medium, 5 days, TH-positive neurons counted): best protective effect
